Measured values as given in patent publication US20120196901A1, “TERTIARY AMIDE OREXIN RECEPTOR ANTAGONISTS” (Merck Sharp & Dohme Corp., priority 2009, published 2012).

Target: T1, OX2R (Homo sapiens, UniProt O43614)
T1 construct: expressed in transfected cells; host or cells: CHO cells (membranes)
T1 sequence (O43614 1-444): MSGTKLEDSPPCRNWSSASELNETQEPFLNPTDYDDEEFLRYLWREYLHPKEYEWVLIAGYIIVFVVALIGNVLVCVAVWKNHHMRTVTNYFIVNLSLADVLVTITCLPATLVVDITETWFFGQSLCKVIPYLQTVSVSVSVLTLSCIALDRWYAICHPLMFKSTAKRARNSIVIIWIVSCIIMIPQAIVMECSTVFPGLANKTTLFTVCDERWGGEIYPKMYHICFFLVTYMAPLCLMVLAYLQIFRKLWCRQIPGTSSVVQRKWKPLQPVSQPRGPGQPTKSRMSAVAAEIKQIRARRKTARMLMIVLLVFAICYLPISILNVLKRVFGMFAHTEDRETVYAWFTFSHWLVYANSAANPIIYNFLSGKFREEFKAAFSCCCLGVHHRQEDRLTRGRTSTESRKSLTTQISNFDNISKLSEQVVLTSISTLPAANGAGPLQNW
Assay: radioligand binding assay, membranes prepared from CHO cells expressing the OX2 receptor
Method: The utility of the compounds in accordance with the present invention as orexin receptor OX1R and/or OX2R antagonists may be readily determined without undue experimentation by methodology well known in the art, including the “FLIPR Ca^2+ Flux Assay” (Okumura et al., Biochem, Biophys. Res. Comm. 280:976-981, 2001). In a typical experiment the OX1 and OX2 receptor antagonistic activity of the compounds of the present invention was determined in accordance with the following experimental method. […] Within the Fluorescent Imaging Plate Reader (FLIPR, Molecular Devices), test compounds are added to the plate in a volume of 25 ul, incubated for 5 min and finally 25 ul of agonist is added. Fluorescence is measured for each well at 1 second intervals for 5 minutes and the height of each fluorescence peak is compared to the height of the fluorescence peak induced by 70 pM Ala-6,12 orexin-A with buffer in place of antagonist. For each antagonist, […] value (the concentration of compound needed to inhibit 50% of the agonist response) is determined. Alternatively, compound potency can be assessed by a radioligand binding assay (described in Bergman et. al. Bioorg. Med. Chem. Lett. 2008, 18, 1425-1430) in which the inhibition constant (ki) is determined in membranes prepared from CHO cells expressing either the OX1 or OX2 receptor. […]

Structure (SMILES): COc1cccc(C(=O)N(CCc2ccc(OC)c(OC)n2)C(C)CCc2ccccc2)n1 (centres unmarked) [Cmp 2-13, N-[2-(5,6-dimethoxypyridin-2-yl)ethyl]-6-methoxy-N-(4-phenylbutan-2-yl)pyridine-2-carboxamide]
- Ki: 140 pM

Structure (SMILES): COc1ccc(CCN(C(=O)c2cccc(C)n2)C(C)CCc2ccccc2)nc1OC (centres unmarked) [Cmp 2-3, N-[2-(5,6-Dimethoxy-2-pyridinyl)ethyl]-6-methyl-N-(1-methyl-3-phenylpropyl)-2-pyridinecarboxamide]
- Ki: 270 pM
